Assay results published in US20230085307A1, “PYRIDAZINONE COMPOUND AND HERBICIDE” (NISSAN CHEMICAL CORPORATION, priority 2019, published 2023).

Key:
oval-leafed pondweed = experiment: Test Example 1: herbicidal activity, application before weed generation under submerged conditions (Table 16, symbol C); assay type: in vivo, oval-leafed pondweed (Monochoria vaginalis); conditions: 320 g/ha applied herbicide
Summary of the method: (§1)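 Emulsion formulation, water-diluted to set dose, was put onto the flooded surface (4 cm depth, alluvial soil) the same day weeds were sown and 2.5-leaf rice transplanted. After 3 weeks at 25-30 °C under glass, each species was rated 0 (≤5% kill) to 5 (≥90% kill).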

false cleavers [1] = experiment: Test Example 5: herbicidal effect by foliage application, plastic box (Table 20, symbol Q); assay type: in vivo, false cleavers (Galium spurium); conditions: foliage application, 320 g/ha, three weeks after application
Summary of the method: (§2)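 Post-emergence foliar test in sterilized diluvial soil. Compound applied as water-diluted emulsion at a predetermined rate to 14-day-old plants; evaluation at three weeks.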

lambsquarters [2] = experiment: Test Example 4: herbicidal effect by soil treatment (Table 19, symbol O); assay type: in vivo, lambsquarters (Chenopodium album); conditions: amount of applied herbicide 320 g/ha
Summary of the method: (§3)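 Emulsion of test compound, water-diluted to predetermined amount, sprayed on soil after sowing (seed depth ~1.5 cm, sterilized diluvial soil). Greenhouse, 25–30° C. Effect graded at three weeks post-spray.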

Italian ryegrass [3] = experiment: Test Example 4: herbicidal effect by soil treatment (Table 19, symbol K); assay type: in vivo, Italian ryegrass (Lolium multiflorum); conditions: amount of applied herbicide 320 g/ha
Summary of the method: as §3

green foxtail [4] = experiment: Test Example 4: herbicidal effect by soil treatment (Table 19, symbol G); assay type: in vivo, green foxtail (Setaria viridis); conditions: amount of applied herbicide 320 g/ha
Summary of the method: as §3

windgrass [5] = experiment: Test Example 4: herbicidal effect by soil treatment (Table 19, symbol L); assay type: in vivo, windgrass (Apera spica-venti); conditions: amount of applied herbicide 320 g/ha
Summary of the method: as §3

barnyard grass [6] = experiment: Test Example 4: herbicidal effect by soil treatment (Table 19, symbol H); assay type: in vivo, barnyard grass (Echinochloa crus-galli); conditions: amount of applied herbicide 320 g/ha
Summary of the method: as §3

southern crabgrass [7] = experiment: Test Example 4: herbicidal effect by soil treatment (Table 19, symbol F); assay type: in vivo, southern crabgrass (Digitaria ciliaris); conditions: amount of applied herbicide 320 g/ha
Summary of the method: as §3

wild oat [8] = experiment: Test Example 5: herbicidal effect by foliage application, plastic box (Table 20, symbol I); assay type: in vivo, wild oat (Avena fatua); conditions: foliage application, 320 g/ha, three weeks after application
Summary of the method: as §2

chickweed [9] = experiment: Test Example 5: herbicidal effect by foliage application, plastic box (Table 20, symbol P); assay type: in vivo, common chickweed (Stellaria media); conditions: foliage application, 320 g/ha, three weeks after application
Summary of the method: as §2

persian speedwell [10] = experiment: Test Example 5: herbicidal effect by foliage application, plastic box (Table 20, symbol R); assay type: in vivo, Persian speedwell (Veronica persica); conditions: foliage application, 320 g/ha, three weeks after application
Summary of the method: as §2

Italian ryegrass [11] = experiment: Test Example 5: herbicidal effect by foliage application, plastic box (Table 20, symbol K); assay type: in vivo, Italian ryegrass (Lolium multiflorum); conditions: foliage application, 320 g/ha, three weeks after application
Summary of the method: as §2

lambsquarters [12] = experiment: Test Example 5: herbicidal effect by foliage application, plastic box (Table 20, symbol O); assay type: in vivo, lambsquarters (Chenopodium album); conditions: foliage application, 320 g/ha, three weeks after application
Summary of the method: as §2

barnyard grass [13] = experiment: Test Example 3: herbicidal effect by foliage application, Wagner pot (Table 18, symbol H); assay type: in vivo, barnyard grass (Echinochloa crus-galli); conditions: 320 g/ha
Summary of the method: (§4)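 Plants were sown in alluvial soil held under 0.1–0.5 cm standing water and grown 14 days in a greenhouse at 25–30 °C. An emulsifiable formulation, water-diluted to the set dose, was then sprayed onto the foliage, and effects were scored three weeks later using previously defined criteria.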

barnyard grass [14] = experiment: Test Example 5: herbicidal effect by foliage application, plastic box (Table 20, symbol H); assay type: in vivo, barnyard grass (Echinochloa crus-galli); conditions: foliage application, 320 g/ha, three weeks after application
Summary of the method: as §2

redroot pigweed [15] = experiment: Test Example 5: herbicidal effect by foliage application, plastic box (Table 20, symbol N); assay type: in vivo, redroot pigweed (Amaranthus retroflexus); conditions: foliage application, 320 g/ha, three weeks after application
Summary of the method: as §2

blackgrass [16] = experiment: Test Example 5: herbicidal effect by foliage application, plastic box (Table 20, symbol J); assay type: in vivo, blackgrass (Alopecurus myosuroides); conditions: foliage application, 320 g/ha, three weeks after application
Summary of the method: as §2

velvetleaf [17] = experiment: Test Example 5: herbicidal effect by foliage application, plastic box (Table 20, symbol M); assay type: in vivo, velvetleaf (Abutilon theophrasti); conditions: foliage application, 320 g/ha, three weeks after application
Summary of the method: as §2

Chinese sprangletop = experiment: Test Example 3: herbicidal effect by foliage application, Wagner pot (Table 18, symbol D); assay type: in vivo, chinese sprangletop (Leptochloa chinensis); conditions: 320 g/ha
Summary of the method: as §4

late watergrass = experiment: Test Example 1: herbicidal activity, application before weed generation under submerged conditions (Table 16, symbol A); assay type: in vivo, late watergrass (Echinochloa oryzicola); conditions: 320 g/ha applied herbicide
Summary of the method: as §1

velvetleaf [18] = experiment: Test Example 4: herbicidal effect by soil treatment (Table 19, symbol M); assay type: in vivo, velvetleaf (Abutilon theophrasti); conditions: amount of applied herbicide 320 g/ha
Summary of the method: as §3

wild oat [19] = experiment: Test Example 4: herbicidal effect by soil treatment (Table 19, symbol I); assay type: in vivo, wild oat (Avena fatua); conditions: amount of applied herbicide 320 g/ha
Summary of the method: as §3

blackgrass [20] = experiment: Test Example 4: herbicidal effect by soil treatment (Table 19, symbol J); assay type: in vivo, blackgrass (Alopecurus myosuroides); conditions: amount of applied herbicide 320 g/ha
Summary of the method: as §3

persian speedwell [21] = experiment: Test Example 4: herbicidal effect by soil treatment (Table 19, symbol R); assay type: in vivo, Persian speedwell (Veronica persica); conditions: amount of applied herbicide 320 g/ha
Summary of the method: as §3

southern crabgrass [22] = experiment: Test Example 5: herbicidal effect by foliage application, plastic box (Table 20, symbol F); assay type: in vivo, southern crabgrass (Digitaria ciliaris); conditions: foliage application, 320 g/ha, three weeks after application
Summary of the method: as §2

redroot pigweed [23] = experiment: Test Example 4: herbicidal effect by soil treatment (Table 19, symbol N); assay type: in vivo, redroot pigweed (Amaranthus retroflexus); conditions: amount of applied herbicide 320 g/ha
Summary of the method: as §3

chickweed [24] = experiment: Test Example 4: herbicidal effect by soil treatment (Table 19, symbol P); assay type: in vivo, common chickweed (Stellaria media); conditions: amount of applied herbicide 320 g/ha
Summary of the method: as §3

green foxtail [25] = experiment: Test Example 5: herbicidal effect by foliage application, plastic box (Table 20, symbol G); assay type: in vivo, green foxtail (Setaria viridis); conditions: foliage application, 320 g/ha, three weeks after application
Summary of the method: as §2

Japanese bulrush = experiment: Test Example 1: herbicidal activity, application before weed generation under submerged conditions (Table 16, symbol B); assay type: in vivo, Japanese bulrush (Schoenoplectus juncoides); conditions: 320 g/ha applied herbicide
Summary of the method: as §1

false cleavers [26] = experiment: Test Example 4: herbicidal effect by soil treatment (Table 19, symbol Q); assay type: in vivo, false cleavers (Galium spurium); conditions: amount of applied herbicide 320 g/ha
Summary of the method: as §3

rice flat sedge = experiment: Test Example 3: herbicidal effect by foliage application, Wagner pot (Table 18, symbol E); assay type: in vivo, rice flat sedge (Cyperus iria); conditions: 320 g/ha
Summary of the method: as §4

windgrass [27] = experiment: Test Example 5: herbicidal effect by foliage application, plastic box (Table 20, symbol L); assay type: in vivo, windgrass (Apera spica-venti); conditions: foliage application, 320 g/ha, three weeks after application
Summary of the method: as §2

Q: With `CCCC(=O)Oc1c(C)nn(C)c(=O)c1-c1c(-c2ccc(F)cc2OCC)sc2ccccc12` [1-062] as the compound, how does the “Herbicidal effect on C: oval-leafed pondweed (grade 0-5)” value (oval-leafed pondweed) read?
A: Its value is 0 (Herbicidal rate of 5% or less (almost no effect)).

Q: And the “herbicidal effect grade, Q: false cleavers” value (false cleavers [1])?
A: The value was 5 (Herbicidal rate of 90% or more (almost completely withered)).

Q: What about the “herbicidal effect rating, O: lambsquarters” value (lambsquarters [2]) of the same compound?
A: Its value is 0 (Herbicidal rate of 5% or less (almost no effect)).

Q: And the “herbicidal effect rating, K: Italian ryegrass” value (Italian ryegrass [3])?
A: The value was 4 (Herbicidal rate of 70% or more and less than 90%).

Q: What about the “herbicidal effect rating, G: green foxtail” value (green foxtail [4]) of the same compound?
A: Its value is 4 (Herbicidal rate of 70% or more and less than 90%).

Q: And the “herbicidal effect rating, L: windgrass” value (windgrass [5])?
A: The value was 3 (Herbicidal rate of 40% or more and less than 70%).

Q: What about the “herbicidal effect rating, H: barnyard grass” value (barnyard grass [6]) of the same compound?
A: The value was 4 (Herbicidal rate of 70% or more and less than 90%).

Q: What about the “herbicidal effect rating, F: southern crabgrass” value (southern crabgrass [7]) of the same compound?
A: The value was 5 (Herbicidal rate of 90% or more (almost completely withered)).

Q: What about the “herbicidal effect grade, I: wild oat” value (wild oat [8]) of the same compound?
A: Its value is 3 (Herbicidal rate of 40% or more and less than 70%).

Q: And the “herbicidal effect grade, P: chickweed” value (chickweed [9])?
A: Its value is 5 (Herbicidal rate of 90% or more (almost completely withered)).

Q: What about the “herbicidal effect grade, R: persian speedwell” value (persian speedwell [10]) of the same compound?
A: The value was 5 (Herbicidal rate of 90% or more (almost completely withered)).

Q: What about the “herbicidal effect grade, K: Italian ryegrass” value (Italian ryegrass [11]) of the same compound?
A: The value was 3 (Herbicidal rate of 40% or more and less than 70%).

Q: And the “herbicidal effect grade, O: lambsquarters” value (lambsquarters [12])?
A: Its value is 3 (Herbicidal rate of 40% or more and less than 70%).

Q: What about the “herbicidal effect on H (barnyard grass), rating 0-5” value (barnyard grass [13]) of the same compound?
A: The value was 5 (Herbicidal rate of 90% or more (almost completely withered)).

Q: What about the “herbicidal effect grade, H: barnyard grass” value (barnyard grass [14]) of the same compound?
A: Its value is 4 (Herbicidal rate of 70% or more and less than 90%).

Q: What about the “herbicidal effect grade, N: redroot pigweed” value (redroot pigweed [15]) of the same compound?
A: Its value is 5 (Herbicidal rate of 90% or more (almost completely withered)).

Q: And the “herbicidal effect grade, J: blackgrass” value (blackgrass [16])?
A: The value was 5 (Herbicidal rate of 90% or more (almost completely withered)).

Q: What about the “herbicidal effect grade, M: velvetleaf” value (velvetleaf [17]) of the same compound?
A: The value was 5 (Herbicidal rate of 90% or more (almost completely withered)).

Q: What about the “herbicidal effect on D (Chinese sprangletop), rating 0-5” value (Chinese sprangletop) of the same compound?
A: The value was 3 (Herbicidal rate of 40% or more and less than 70%).

Q: What about the “Herbicidal effect on A: late watergrass (grade 0-5)” value (late watergrass) of the same compound?
A: The value was 2 (Herbicidal rate of 20% or more and less than 40%).

Q: What about the “herbicidal effect rating, M: velvetleaf” value (velvetleaf [18]) of the same compound?
A: The value was 3 (Herbicidal rate of 40% or more and less than 70%).

Q: What about the “herbicidal effect rating, I: wild oat” value (wild oat [19]) of the same compound?
A: Its value is 1 (Herbicidal rate of 5% or more and less than 20%).

Q: What about the “herbicidal effect rating, J: blackgrass” value (blackgrass [20]) of the same compound?
A: Its value is 5 (Herbicidal rate of 90% or more (almost completely withered)).

Q: What about the “herbicidal effect rating, R: persian speedwell” value (persian speedwell [21]) of the same compound?
A: The value was 4 (Herbicidal rate of 70% or more and less than 90%).

Q: And the “herbicidal effect grade, F: southern crabgrass” value (southern crabgrass [22])?
A: The value was 5 (Herbicidal rate of 90% or more (almost completely withered)).

Q: What about the “herbicidal effect rating, N: redroot pigweed” value (redroot pigweed [23]) of the same compound?
A: Its value is 5 (Herbicidal rate of 90% or more (almost completely withered)).

Q: What about the “herbicidal effect rating, P: chickweed” value (chickweed [24]) of the same compound?
A: Its value is 3 (Herbicidal rate of 40% or more and less than 70%).

Q: And the “herbicidal effect grade, G: green foxtail” value (green foxtail [25])?
A: Its value is 5 (Herbicidal rate of 90% or more (almost completely withered)).

Q: What about the “Herbicidal effect on B: Japanese bulrush (grade 0-5)” value (Japanese bulrush) of the same compound?
A: Its value is 2 (Herbicidal rate of 20% or more and less than 40%).

Q: And the “herbicidal effect rating, Q: false cleavers” value (false cleavers [26])?
A: Its value is 5 (Herbicidal rate of 90% or more (almost completely withered)).

Q: And the “herbicidal effect on E (rice flat sedge), rating 0-5” value (rice flat sedge)?
A: The value was 5 (Herbicidal rate of 90% or more (almost completely withered)).

Q: And the “herbicidal effect grade, L: windgrass” value (windgrass [27])?
A: The value was 5 (Herbicidal rate of 90% or more (almost completely withered)).
